We go through 3 molecules from US20220340650A1, “COMBINATION THERAPY WITH CGRP ANTAGONISTS” (Allergan Pharmaceuticals International Limited, priority 2019, published 2022).

Entries after “also recorded” stand apart in the source; their conditions may differ.

Series [1] is described as follows: Phase 1b trial NCT04179474, safety and tolerability (adverse events), galcanezumab arm (Part 2). Further details: species or system human. The settings on record: in vivo. As for the experimental part:
(§1) A two-part, multi-center, open-label, phase 1b trial (NCT04179474) in 40 adults (aged 18-50 years) diagnosed with migraine was conducted to evaluate the impact of erenumab or galcanezumab on the pharmacokinetics (PK), safety, and tolerability of ubrogepant in patients with migraine.
(§2) This open-label, multicenter trial enrolled adults diagnosed for greater than or equal to one year with migraine not on preventive treatment. Participants were assigned to an erenumab arm (Part 1) or a galcanezumab arm (Part 2). In each arm, participants received ubrogepant 100 mg on day 1 (without an antibody). On day 8, participants received the assigned monoclonal antibody: single subcutaneous (SC) erenumab 140 mg injection (Part 1) or galcanezumab 240 mg (2 SC 120 mg injections) (Part 2). Ubrogepant 100 mg was administered once daily on days 12-15. Participants were followed for 30 days.
(§3) Of 40 enrolled participants, 20 were included in part 1 (n=20 ubrogepant, n=19 erenumab, and n=19 co-administered ubrogepant and erenumab) and 20 were included in part 2 (n=20 ubrogepant, n=20 galcanezumab, and n=19 co-administered ubrogepant and galcanezumab).
(§4) PK parameters, derived from plasma ubrogepant concentrations in blood collected at prespecified time points over 24 hours post-dose on days 1 and 12, included area under the curve from time 0 to time t (AUC0-t) or to infinity (AUC0-∞); peak plasma concentration (Cmax), time to Cmax (Tmax); and apparent terminal half life (t1/2). Safety outcomes included incidence of adverse events (AEs; daily and through follow-up), and laboratory values, vital signs, and electrocardiogram (ECG) results (at prespecified timepoints pre- and post-dose). Log-transformed Cmax, AUC0-t, and […] , for ubrogepant with and without erenumab or galcanezumab with 90% CI were constructed.

Series [2] can be described thus: Phase 1b trial NCT04179474, safety and tolerability (adverse events), erenumab arm (Part 1). More on the design: species or system human. The settings on record: in vivo. As for the experimental part:
as §1, §2, §3, §4

Series [3] in a line: Phase 1b trial NCT04179474, plasma ubrogepant pharmacokinetics, galcanezumab arm (Part 2). The class given is in vivo, human. The settings on record: for AUC(0-t): 100 mg. As for the experimental part: as §1, §2
Of 40 enrolled participants, 20 were included in part 1 (n=20 ubrogepant, n=19 erenumab, and n=19 co-administered ubrogepant and erenumab) and 20 were included in part 2 (n=20 ubrogepant, n=20 galcanezumab, […]).
as §4

Series [4] can be described thus: Phase 1b trial NCT04179474, plasma ubrogepant pharmacokinetics, erenumab arm (Part 1). The following applies: for half-life: read-out: t1/2, mean (converted). The class given is in vivo, human. As for the experimental part: as §1, §2, §3, §4
For a further series, the system named is CYP enzymes. The following applies: general statement, no test described; cited from earlier work.
Where [5] appears, read: galcanezumab arm, ubrogepant 100 mg alone, day 1, n = 20.
Where [6] appears, read: erenumab arm, ubrogepant 100 mg alone, day 1, n = 20.

`C[C@@H]1[C@H](c2ccccc2)C[C@H](NC(=O)c2cnc3c(c2)C[C@@]2(C3)C(=O)Nc3ncccc32)C(=O)N1CC(F)(F)F` [Ubrogepant, ubrogepant]: in series [1] (human), the “Abdominal Discomfort, participants” value worked out at 0 participants; the “Dizziness, participants” value is on record as 0 participants; the “Headache, participants” value is 0 participants; the “Hiccups, participants” value is given as 0 participants. For the same molecule, in series [1] (human), the “TEAEs, participants (%)” value is recorded as “(10.0) %” and the “Upper Abdominal Pain, participants” value turned out to be 0 participants. The “safety concerns on co-administration” value in series [1] is given as “no safety concerns were identified”. In series [2] (human), the “Abdominal Pain, participants” value was determined as 0 participants; the “Constipation, participants” value stood at 0 participants; the “Flatulence, participants” value worked out at 0 participants; the “Headache, participants” value is reported as 1 participants. In series [2] (human), the “Headache, participants (%)” value is “(5.0) %”; the “Nasopharyngitis, participants” value turned out to be 1 participants; the “Nasopharyngitis, participants (%)” value is on record as “(5.0) %”; the “Nausea, participants” value came to 0 participants. Moreover, in series [2] (human), the “Somnolence, participants” value is 1 participants; the “Somnolence, participants (%)” value is reported as “(5.0) %”; the “TEAEs, participants (%)” value was “(35.0) %”; the “Treatment Related AEs, participants (%)” value was “(10.0) %”. In series [2] (human), the “Upper Abdominal Pain, participants” value stood at 0 participants. In addition, in series [2], the “safety concerns on co-administration” value is “no safety concerns were identified”. Further, in series [3] (setting [5]), the “AUC0-∞, mean” value is 1732.2 ng·h/mL; the “CL/F, mean” value worked out at 72.9 L/h; the “Cmax, mean” value is recorded as 415.3 ng/mL; the “t1/2, mean” value was determined as 4.6 h. Moreover, in series [3] (human, plasma, oral, galcanezumab arm, ubrogepant 100 mg alone, day 1, n = 20, read-out: AUC0-t, mean), the AUC(0-t) was determined as 1700 ng·h/mL. Further, in series [3] (human, plasma, oral, galcanezumab arm, ubrogepant 100 mg alone, day 1, read-out: AUC0-t, geometric LSM), the AUC(0-t) was found to be 1510 ng·h/mL. Moreover, the Vd/F in series [3] (human, plasma, oral, galcanezumab arm, ubrogepant 100 mg alone, day 1, n = 20, read-out: VZ/F, mean) was determined as 569 L. Further, the AUC(0-inf) in series [3] (human, plasma, oral, galcanezumab arm, ubrogepant 100 mg alone, day 1, read-out: AUC0-∞, geometric LSM) was 1540 ng·h/mL. Besides, the Cmax in series [3] (human, plasma, oral, galcanezumab arm, ubrogepant 100 mg alone, day 1, read-out: Cmax, geometric LSM) was 359 ng/mL. Further, the Tmax in series [3] (human, plasma, oral, galcanezumab arm, ubrogepant 100 mg day 12, after SC galcanezumab 240 mg on day 8, n = 20) came to 1.5 h. In addition, the half-life in series [3] (human, plasma, oral, galcanezumab arm, ubrogepant 100 mg day 12, after SC galcanezumab 240 mg on day 8, n = 20, read-out: t1/2, mean (converted)) is 5 h. Moreover, the “change in ubrogepant PK (Cmax, AUC0-t, AUC0-28) after coadministration with galcanezumab versus alone” value in series [3] (ubrogepant 100 mg, galcanezumab 240 mg SC) is “no significant change; also recorded: unchanged”. Besides, in series [3] (vs ubrogepant alone), the “change in ubrogepant Cmax with galcanezumab coadministration” value was “unchanged”, the “increase in ubrogepant AUC0-t with galcanezumab coadministration” value is on record as 5% and the “increase in ubrogepant AUC0-∞ with galcanezumab coadministration” value turned out to be 5%. For the same molecule, in series [4] (setting [6]), the “CL/F, mean” value amounted to 57.4 L/h and the “t1/2, mean” value is on record as 4.6 h. In addition, in series [4] (human, plasma, oral, erenumab arm, ubrogepant 100 mg alone, day 1, read-out: AUC0-t, geometric LSM), the AUC(0-t) came out at 1780 ng·h/mL. In addition, the AUC(0-inf) in series [4] (human, plasma, oral, erenumab arm, ubrogepant 100 mg alone, day 1, read-out: AUC0-∞, geometric LSM) was 1810 ng·h/mL. Besides, the Cmax in series [4] (human, plasma, oral, erenumab arm, ubrogepant 100 mg alone, day 1, read-out: Cmax, geometric LSM) stood at 431 ng/mL. Also, the AUC(0-t) in series [4] (human, plasma, other: extravascular administration, erenumab arm, ubrogepant 100 mg alone, day 1, n = 20, read-out: AUC0-t, mean) is 1840 ng·h/mL. Also, in series [4] (human, plasma, other: extravascular administration, erenumab arm, ubrogepant 100 mg alone, day 1, n = 20, read-out: AUC0-∞, mean), the AUC(0-inf) was 1880 ng·h/mL. The maximum concentration (Cmax) in series [4] (human, plasma, other: extravascular administration, erenumab arm, ubrogepant 100 mg alone, day 1, n = 20, read-out: Cmax, mean) turned out to be 459 ng/mL. Further, the Vd/F in series [4] (human, plasma, other: extravascular administration, erenumab arm, ubrogepant 100 mg alone, day 1, n = 20, read-out: VZ/F, mean) worked out at 437 L. For the same molecule, in series [4] (human, plasma, other: extravascular administration, erenumab arm, ubrogepant 100 mg alone, day 1, n = 20), the half-life was 5.3 h. Further, in series [4] (human, plasma, erenumab arm, ubrogepant 100 mg day 12, after SC erenumab 140 mg on day 8, n = 19), the half-life was 5.3 h. Further, in series [4] (human, plasma, erenumab arm, ubrogepant 100 mg day 12, after SC erenumab 140 mg on day 8, n = 19, read-out: tmax, median), the Tmax amounted to 1.5 h. Also, the “change in ubrogepant PK (Cmax, AUC0-t, AUC0-∞) after coadministration with erenumab versus alone” value in series [4] (ubrogepant 100 mg, erenumab 140 mg SC) is recorded as “no significant change; also recorded: minimally elevated; also recorded: unchanged”.

B1: erenumab (antibody, chains of the INN, looked up, V domains shown)
VH: QVQLVESGGGVVQPGRSLRLSCAASGFTFSSFGMHWVRQAPGKGLEWVAVISFDGSIKYSVDSVKGRFTISRDNSKNTLFLQMNSLRAEDTAVYYCARDRLNYYDSSGYYHYKYYGMAVWGQGTTVTVSS
VL: QSVLTQPPSVSAAPGQKVTISCSGSSSNIGNNYVSWYQQLPGTAPKLLIYDNNKRPSGIPDRFSGSKSGTSTTLGITGLQTGDEADYYCGTWDSRLSAVVFGGGTKLTVL
B1: in series [2], the “Abdominal Pain, participants” value is listed as 0 participants; the “Constipation, participants” value was found to be 0 participants; the “Flatulence, participants” value was determined as 1 participants; the “Flatulence, participants (%)” value was “(5.3) %”. In addition, in series [2], the “Headache, participants” value was determined as 6 participants; the “Headache, participants (%)” value is listed as “(31.6) %”; the “Nasopharyngitis, participants” value came out at 0 participants; the “Nausea, participants” value is on record as 0 participants. In series [2], the “Somnolence, participants” value amounted to 0 participants; the “TEAEs, participants (%)” value is on record as “(42.1) %”; the “Treatment Related AEs, participants (%)” value is “(36.8) %”; the “Upper Abdominal Pain, participants” value is recorded as 0 participants. Moreover, the “metabolism by CYP enzymes” value in the series with CYP enzymes was “not metabolized by CYP enzymes”.

B2: galcanezumab (antibody, chains of the INN, looked up, V domains shown)
VH: QVQLVQSGAEVKKPGSSVKVSCKASGYTFGNYWMQWVRQAPGQGLEWMGAIYEGTGKTVYIQKFADRVTITADKSTSTAYMELSSLRSEDTAVYYCARLSDYVSGFGYWGQGTTVTVSS
VL: DIQMTQSPSSLSASVGDRVTITCRASKDISKYLNWYQQKPGKAPKLLIYYTSGYHSGVPSRFSGSGSGTDFTLTISSLQPEDFATYYCQQGDALPPTFGGGTKVEIK
notes: long-acting CGRP antagonist antibody that targets the CGRP ligand
On to B2, for which, in series [1], the “Abdominal Discomfort, participants” value came out at 0 participants; the “Dizziness, participants” value was 0 participants; the “Headache, participants” value came to 3 participants; the “Headache, participants (%)” value was “(15.0) %”. In series [1], the “Hiccups, participants” value is given as 1 participants; the “Hiccups, participants (%)” value is listed as “(5.0) %”; the “TEAEs, participants (%)” value is on record as “(15.0) %”; the “Treatment-related AEs, participants (%)” value is given as “(15.0) %”. In addition, in series [1], the “Upper Abdominal Pain, participants” value was determined as 0 participants. For the same molecule, in the series on CYP enzymes, the “metabolism by CYP enzymes” value is reported as “not metabolized by CYP enzymes”.

As usually defined, the Cmax is the highest concentration seen after dosing. The term Tmax denotes the time from dosing to the highest level.
